Data reported in patent US5126337A, “Thiazetoquinoline-3-carboxylic acid derivative and a pharmaceutical composition comprising the same” (priority 1989, dated 1992).
Values after ≈ are worked out from the molar mass of the structure shown.

How the values were obtained:
[1] = tested on: Enterobacter cloacae HNR 1941; experiment: Antibacterial spectrum, MIC by twofold agar dilution method; type: cell-based; conditions: HNR1941, 10^6 cfu/ml, clinically isolated strain, Gram -, 18 hrs at 37° C
Protocol: (§1) Overnight cultures in Mueller-Hinton broth were suspended by buffered saline gelatin. One loopful of the bacterial suspension (10^6 or 10^8 colony-forming units/ml) was incubated onto the plates containing test compounds. The plates were incubated for 18 hrs at 37° C. The MIC was defined by the lowest concentration of the drug that inhibited visible growth of bacteria.

[2] = tested on: Klebsiella pneumoniae HNR 828; experiment: as above; type: cell-based; conditions: HNR828, 10^6 cfu/ml, clinically isolated strain, Gram -, 18 hrs at 37° C
Protocol: as §1

[3] = tested on: Enterococcus faecalis HPC 948; experiment: as above; type: cell-based; conditions: HPC948, 10^6 cfu/ml, clinically isolated strain, Gram +, 18 hrs at 37° C
Protocol: as §1

[4] = tested on: Escherichia coli NIHJ JC-2; experiment: as above; type: cell-based; conditions: NIHJJC2, 10^6 cfu/ml, standard laboratory strain, Gram -, 18 hrs at 37° C
Protocol: as §1

[5] = tested on: Staphylococcuss aureus HPC 527; experiment: as above; type: cell-based; conditions: 10^6 cfu/ml; clinically isolated strain, Gram +; 18 hrs at 37° C
Protocol: as §1

[6] = tested on: Pseudomonas aeruginosa HNR 1537; experiment: as above; type: cell-based; conditions: HNR1537, 10^6 cfu/ml, clinically isolated strain, Gram -, 18 hrs at 37° C
Protocol: as §1

[7] = tested on: Enterobacter cloacae HNR 1939; experiment: as above; type: cell-based; conditions: HNR1939, 10^6 cfu/ml, clinically isolated strain, Gram -, 18 hrs at 37° C
Protocol: as §1

[8] = tested on: Klebsiella pneumoniae HNR 869; experiment: as above; type: cell-based; conditions: HNR869, 10^6 cfu/ml, clinically isolated strain, Gram -, 18 hrs at 37° C
Protocol: as §1

[9] = tested on: Serratia marcescens HNR 1544; experiment: as above; type: cell-based; conditions: HNR1544, 10^6 cfu/ml, clinically isolated strain, Gram -, 18 hrs at 37° C
Protocol: as §1

[10] = tested on: Serratia marcescens HNR 1767; experiment: as above; type: cell-based; conditions: HNR1767, 10^6 cfu/ml, clinically isolated strain, Gram -, 18 hrs at 37° C
Protocol: as §1

[11] = tested on: Acinetobacter calcoaceticus HNR 939; experiment: as above; type: cell-based; conditions: HNR939, 10^6 cfu/ml, clinically isolated strain, Gram -, 18 hrs at 37° C
Protocol: as §1

[12] = tested on: Staphylococuss aureus FDA 209PJC-1; experiment: as above; type: cell-based; conditions: 10^6 cfu/ml; standard laboratory strain, Gram +; 18 hrs at 37° C
Protocol: as §1

[13] = tested on: Pseudomonas aeruginosa IFO 3445; experiment: as above; type: cell-based; conditions: IFO3445, 10^6 cfu/ml, standard laboratory strain, Gram -, 18 hrs at 37° C
Protocol: as §1

[14] = tested on: Serratia marcescens IAM 1184; experiment: as above; type: cell-based; conditions: IAM1184, 10^6 cfu/ml, standard laboratory strain, Gram -, 18 hrs at 37° C
Protocol: as §1

[15] = tested on: Enterobacter cloacae HNR 1946; experiment: as above; type: cell-based; conditions: HNR1946, 10^6 cfu/ml, clinically isolated strain, Gram -, 18 hrs at 37° C
Protocol: as §1

[16] = tested on: Enterococcus faecalis HPC 975; experiment: as above; type: cell-based; conditions: HPC975, 10^6 cfu/ml, clinically isolated strain, Gram +, 18 hrs at 37° C
Protocol: as §1

[17] = tested on: Acinetobacter calcoaceticus HNR 904; experiment: as above; type: cell-based; conditions: HNR904, 10^6 cfu/ml, clinically isolated strain, Gram -, 18 hrs at 37° C
Protocol: as §1

Enterobacter cloacae 963 = experiment: as above; type: cell-based; conditions: 10^6 cfu/ml, standard laboratory strain, Gram -, 18 hrs at 37° C
Protocol: as §1

[18] = tested on: Enterococcus faecalis HPC 984; experiment: as above; type: cell-based; conditions: HPC984, 10^6 cfu/ml, clinically isolated strain, Gram +, 18 hrs at 37° C
Protocol: as §1

[19] = tested on: Acinetobacter calcoaceticus HNR 916; experiment: as above; type: cell-based; conditions: HNR916, 10^6 cfu/ml, clinically isolated strain, Gram -, 18 hrs at 37° C
Protocol: as §1

[20] = tested on: Serratia marcescens HNR 1792; experiment: as above; type: cell-based; conditions: HNR1792, 10^6 cfu/ml, clinically isolated strain, Gram -, 18 hrs at 37° C
Protocol: as §1

[21] = tested on: Pseudomonas aeruginosa HNR 1489; experiment: as above; type: cell-based; conditions: HNR1489, 10^6 cfu/ml, clinically isolated strain, Gram -, 18 hrs at 37° C
Protocol: as §1

[22] = tested on: Klebsiella pneumoniae HNR 858; experiment: as above; type: cell-based; conditions: HNR858, 10^6 cfu/ml, clinically isolated strain, Gram -, 18 hrs at 37° C
Protocol: as §1

[23] = tested on: Staphylococcuss aureus HPC 292; experiment: as above; type: cell-based; conditions: 10^6 cfu/ml; clinically isolated strain, Gram +; 18 hrs at 37° C; read-out: MIC
Protocol: as §1

Male mice of ddY strain = experiment: Convulsion inducing activity in combination with fenbufen; conditions: 30 min after fenbufen 100 mg/kg orally
Protocol: Male mice of ddY strain, 5 weeks old, were used. Fenbufen suspended in 0.5% carboxymethyl cellulose was administered orally at a dose of 100 mg/kg. After thirty minutes, test compounds suspended in 0.5% carboxymethyl cellulose were injected intraperitoneally (i.p.) at a dose of 100 mg/kg or 300 mg/kg.

[24] = tested on: Klebsiella pneumoniae PCI-602; experiment: Antibacterial spectrum, MIC by twofold agar dilution method; type: cell-based; conditions: PCI602, 10^6 cfu/ml, standard laboratory strain, Gram -, 18 hrs at 37° C, read-out: MIC
Protocol: as §1, with “Minimum inhibitory concentrations (MIC) of test compounds were determined by the twofold agar dilution method (Chemotherapy, 29(1), 76(1981)). Overnight” for “Overnight”

[25] = tested on: Pseudomonas aeruginosa HNR 1472; experiment: as above; type: cell-based; conditions: HNR1472, 10^6 cfu/ml, clinically isolated strain, Gram -, 18 hrs at 37° C
Protocol: as §1

[26] = tested on: Staphylococcuss aureus HPC 308; experiment: as above; type: cell-based; conditions: 10^6 cfu/ml; clinically isolated strain, Gram +; 18 hrs at 37° C
Protocol: as §1

Compound	MIC [1]	MIC [2]	MIC [3]	MIC [4]	MIC [5]	MIC [6]	MIC [7]	MIC [8]	MIC [9]	MIC [10]	MIC [11]	MIC [12]	MIC [13]	MIC [14]	MIC [15]	MIC [16]	MIC (Enterobacter cloacae 963)	MIC [18]	MIC [19]	MIC [21]	other results
CC1Sc2c(C(=O)O)c(=O)c3cc(F)c(N4CCC(N)C4)c(F)c3n21 (stereo not shown) [Example 33, 7-(3-amino-1-pyrrolidinyl)-6,8-difluoro-1-methyl-4-oxo-1H,4H-[1,3] thiazeto[3,2-a]quinoline-3-carboxylic acid]	3.13 µg/mL (≈ 8.52 µM)	3.13 µg/mL (≈ 8.52 µM)	0.78 µg/mL (≈ 2.12 µM)	0.025 µg/mL (≈ 0.068 µM)	0.05 µg/mL (≈ 0.136 µM)	12.5 µg/mL (≈ 34 µM)	0.2 µg/mL (≈ 0.544 µM)	0.78 µg/mL (≈ 2.12 µM)	0.05 µg/mL (≈ 0.136 µM)	12.5 µg/mL (≈ 34 µM)	1.56 µg/mL (≈ 4.25 µM)	0.025 µg/mL (≈ 0.068 µM)	0.1 µg/mL (≈ 0.272 µM)	0.1 µg/mL (≈ 0.272 µM)	0.2 µg/mL (≈ 0.544 µM)	6.25 µg/mL (≈ 17 µM)	0.05 µg/mL (≈ 0.136 µM)	0.2 µg/mL (≈ 0.544 µM)	0.2 µg/mL (≈ 0.544 µM)	0.2 µg/mL (≈ 0.544 µM)	MIC [17]: 25 µg/mL (≈ 68 µM); MIC [20]: 1.56 µg/mL (≈ 4.25 µM); MIC [22]: 0.2 µg/mL (≈ 0.544 µM); MIC [23]: 6.25 µg/mL (≈ 17 µM); Number of convulsion induced/Number of animals (Male mice of ddY strain; 100 mg/kg (i.p.)): 0/6; Number of convulsion induced/Number of animals (Male mice of ddY strain; 300 mg/kg (i.p.)): 0/6
CC1Sc2c(C(=O)O)c(=O)c3cc(F)c(N4CCC(N)C4)c(Cl)c3n21 (stereo not shown) [Example 34, 7-(3-Amino-1-pyrrolidinyl)-8-chloro-6-fluoro-1-methyl-4-oxo-1H,4H-[1,3]thiazeto[3,2-a]quinoline-3-carboxylic acid]	1.56 µg/mL (≈ 4.06 µM)	3.13 µg/mL (≈ 8.15 µM)	0.78 µg/mL (≈ 2.03 µM)	0.025 µg/mL (≈ 0.0651 µM)	0.05 µg/mL (≈ 0.13 µM)	3.13 µg/mL (≈ 8.15 µM)	0.2 µg/mL (≈ 0.521 µM)	0.78 µg/mL (≈ 2.03 µM)	0.05 µg/mL (≈ 0.13 µM)	6.25 µg/mL (≈ 16.3 µM)	1.56 µg/mL (≈ 4.06 µM)	0.05 µg/mL (≈ 0.13 µM)	0.1 µg/mL (≈ 0.261 µM)	0.05 µg/mL (≈ 0.13 µM)	0.2 µg/mL (≈ 0.521 µM)	12.5 µg/mL (≈ 32.6 µM)	0.025 µg/mL (≈ 0.0651 µM)	0.2 µg/mL (≈ 0.521 µM)	0.1 µg/mL (≈ 0.261 µM)	0.2 µg/mL (≈ 0.521 µM)	MIC [24]: 0.012 µg/mL (≈ 0.0313 µM); MIC [25]: 3.13 µg/mL (≈ 8.15 µM); MIC [22]: 0.2 µg/mL (≈ 0.521 µM); MIC [23]: 6.25 µg/mL (≈ 16.3 µM); Number of convulsion induced/Number of animals (Male mice of ddY strain; 100 mg/kg (i.p.)): 0/6; Number of convulsion induced/Number of animals (Male mice of ddY strain; 300 mg/kg (i.p.)): 0/6
CC1Sc2c(C(=O)O)c(=O)c3cc(F)c(N4CC[C@H](N(C)C)C4)c(Cl)c3n21 (stereo partly drawn) [Example 35, 8-Chloro-7-((S)-3-dimethylamino-1-pyrrolidinyl)-6-fluoro-1-methyl-4-oxo-1H,4H-[1,3]thiazeto[3,2-a]quinoline-3-carboxylic acid]	6.25 µg/mL (≈ 15.2 µM)	6.25 µg/mL (≈ 15.2 µM)	1.56 µg/mL (≈ 3.79 µM)	0.1 µg/mL (≈ 0.243 µM)	0.1 µg/mL (≈ 0.243 µM)	25 µg/mL (≈ 60.7 µM)	0.39 µg/mL (≈ 0.947 µM)	1.56 µg/mL (≈ 3.79 µM)	0.1 µg/mL (≈ 0.243 µM)	12.5 µg/mL (≈ 30.3 µM)	1.56 µg/mL (≈ 3.79 µM)	0.1 µg/mL (≈ 0.243 µM)	0.78 µg/mL (≈ 1.89 µM)	0.2 µg/mL (≈ 0.486 µM)	0.39 µg/mL (≈ 0.947 µM)	12.5 µg/mL (≈ 30.3 µM)	0.1 µg/mL (≈ 0.243 µM)	0.39 µg/mL (≈ 0.947 µM)	0.1 µg/mL (≈ 0.243 µM)	0.78 µg/mL (≈ 1.89 µM)	MIC [24]: 0.05 µg/mL (≈ 0.121 µM); MIC [26]: 0.78 µg/mL (≈ 1.89 µM); MIC [25]: 12.5 µg/mL (≈ 30.3 µM); MIC [17]: 3.13 µg/mL (≈ 7.6 µM); MIC [20]: 3.13 µg/mL (≈ 7.6 µM); MIC [22]: 0.39 µg/mL (≈ 0.947 µM); MIC [23]: 12.5 µg/mL (≈ 30.3 µM)
